Results from PubChem BioAssay AID330 (DTP/NCI, 2004).
“And” between values parts separate entries of the source, which are not always exact repeats. Equal values may be shown once. Inconclusive results and toxic doses are left out.

Test system: P388 leukemia ip, CD2F1 mice, survival T/C
Assay: NCI In Vivo Anticancer Drug Screen. Data for tumor model P388 Leukemia (intraperitoneal) in CD2F1 (CDF1) mice
Conditions: endpoint: median survival time, higher = longer survival
In short: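 Mice carrying the transplanted tumor received test compound or vehicle. Survival was recorded in each group, and the value is the treated-group measurement divided by that of the vehicle-treated control group.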

[1] = dose: 50.0 mg/kg/injection, schedule: Q01DX009 (ip), vehicle: Klucel (hydroxypropylcellulose) (HPC)
[2] = dose: 60.0 mg/kg/injection, schedule: Q01DX005 (ip), vehicle: Klucel (hydroxypropylcellulose) (HPC)
[3] = dose: 120.0 mg/kg/injection, schedule: Q01DX005 (ip), vehicle: Klucel (hydroxypropylcellulose) (HPC)
[4] = dose: 240.0 mg/kg/injection, schedule: Q01DX005 (ip), vehicle: Klucel (hydroxypropylcellulose) (HPC)

O=C1CSC(=S)N1c1cccc(Cl)c1
T/C [1]: 107 % of control and 122 % of control | T/C (dose: 100.0 mg/kg/injection, schedule: Q01DX009 (ip), vehicle: Klucel (hydroxypropylcellulose) (HPC)): 118 % of control and 121 % of control | T/C (dose: 200.0 mg/kg/injection, schedule: Q01DX009 (ip), vehicle: Klucel (hydroxypropylcellulose) (HPC)): 111 % of control | T/C (dose: 400.0 mg/kg/injection, schedule: Q01DX009 (ip), vehicle: Klucel (hydroxypropylcellulose) (HPC)): 100 % of control

CCCCNC(=O)OCCN(C)CCOC(=O)NCCCC
T/C (dose: 60.0 mg/kg/injection, schedule: Q01DX005 (ip), vehicle: saline): 107 % of control | T/C (dose: 120.0 mg/kg/injection, schedule: Q01DX005 (ip), vehicle: saline): 101 % of control

C[C@@](O)(/C=C/[C@H]1CC=CC(=O)O1)[C@@H](C[C@@H](O)\C=C/C=C\C=C\CO)OP(=O)(O)O
T/C (dose: 12.5 mg/kg/injection, schedule: Q01DX005 (ip), vehicle: other): 150 % of control and 157 % of control | T/C (dose: 25.0 mg/kg/injection, schedule: Q01DX005 (ip), vehicle: other): 174 % of control

O=C(CCN1C(=O)c2ccccc2C1=O)Nc1ncc[nH]1
T/C (dose: 8.75 mg/kg/injection, schedule: Q01DX005 (ip), vehicle: Klucel (hydroxypropylcellulose) (HPC)): 98 % of control | T/C (dose: 17.5 mg/kg/injection, schedule: Q01DX005 (ip), vehicle: Klucel (hydroxypropylcellulose) (HPC)): 98 % of control | T/C (dose: 35.0 mg/kg/injection, schedule: Q01DX005 (ip), vehicle: Klucel (hydroxypropylcellulose) (HPC)): 96 % of control

COc1ccc([P+](CCN2C(=O)c3ccccc3C2=O)(c2ccc(OC)cc2)c2ccc(OC)cc2)cc1
T/C (dose: 0.78 mg/kg/injection, schedule: Q01DX009 (ip), vehicle: water): 121 % of control | T/C (dose: 1.56 mg/kg/injection, schedule: Q01DX009 (ip), vehicle: water): 114 % of control | T/C (dose: 2.7 mg/kg/injection, schedule: Q01DX009 (ip), vehicle: water): 116 % of control | T/C (dose: 3.13 mg/kg/injection, schedule: Q01DX009 (ip), vehicle: water): 121 % of control | T/C (dose: 12.5 mg/kg/injection, schedule: Q01DX009 (ip), vehicle: water): 92 % of control

CC1=NCC[N-]CC[N-]CCN=C(C)C2CCCC1[N-]2.[Mn+3]
T/C (dose: 7.5 mg/kg/injection, schedule: Q01DX005 (ip), vehicle: saline with Tween-80): 100 % of control | T/C (dose: 15.0 mg/kg/injection, schedule: Q01DX005 (ip), vehicle: saline with Tween-80): 96 % of control | T/C (dose: 30.0 mg/kg/injection, schedule: Q01DX005 (ip), vehicle: saline with Tween-80): 96 % of control

O=C(Nc1cccnc1)c1ccc([N+](=O)[O-])s1
T/C (dose: 25.0 mg/kg/injection, schedule: Q01DX005 (ip), vehicle: saline): 90 % of control | T/C (dose: 50.0 mg/kg/injection, schedule: Q01DX005 (ip), vehicle: saline): 87 % of control | T/C (dose: 100.0 mg/kg/injection, schedule: Q01DX005 (ip), vehicle: saline): 92 % of control | T/C (dose: 200.0 mg/kg/injection, schedule: Q01DX005 (ip), vehicle: saline): 103 % of control | T/C (dose: 400.0 mg/kg/injection, schedule: Q01DX005 (ip), vehicle: saline): 121 % of control

CCOC(=O)NC(NC(=O)OCC)c1ccc(C(NC(=O)OCC)NC(=O)OCC)cc1
T/C (dose: 100.0 mg/kg/injection, schedule: Q04DX003 (ip), vehicle: saline): 99 % of control | T/C (dose: 200.0 mg/kg/injection, schedule: Q04DX003 (ip), vehicle: saline): 90 % of control | T/C (dose: 400.0 mg/kg/injection, schedule: Q04DX003 (ip), vehicle: saline): 89 % of control

COc1ccc(C2CC(c3cc(C)cc(Br)c3O)=NO2)cc1 (stereo not given)
T/C (dose: 100.0 mg/kg/injection, schedule: Q04DX002 (ip), vehicle: saline with Tween-80): 93 % of control | T/C (dose: 200.0 mg/kg/injection, schedule: Q04DX002 (ip), vehicle: saline with Tween-80): 88 % of control | T/C (dose: 400.0 mg/kg/injection, schedule: Q04DX002 (ip), vehicle: saline with Tween-80): 92 % of control

CCOC(=O)C1=C(C(C)=O)C(c2cccc([N+](=O)[O-])c2)C(C(C)=O)=C(C(=O)OCC)N1
T/C [2]: 98 % of control | T/C [3]: 88 % of control | T/C [4]: 95 % of control

ClCCN(CCCl)c1ccc(CNCCCNCc2ccc(N(CCCl)CCCl)cc2)cc1
T/C (dose: 2.5 mg/kg/injection, schedule: Q01DX009 (ip), vehicle: saline sonified): 152 % of control | T/C (dose: 5.0 mg/kg/injection, schedule: Q01DX009 (ip), vehicle: saline sonified): 95 % of control

CC(=O)c1cnn(C(N)=O)c1C
T/C (dose: 15.0 mg/kg/injection, schedule: Q01DX005 (ip), vehicle: Klucel (hydroxypropylcellulose) (HPC)): 95 % of control and 96 % of control | T/C (dose: 30.0 mg/kg/injection, schedule: Q01DX005 (ip), vehicle: Klucel (hydroxypropylcellulose) (HPC)): 100 % of control and 102 % of control | T/C [2]: 101 % of control and 97 % of control | T/C [3]: 105 % of control and 96 % of control and 98 % of control | T/C [4]: 107 % of control

CN(N=Nc1ccc(C#N)cc1)C(C)(C)C
T/C (dose: 50.0 mg/kg/injection, schedule: Q01DX005 (ip), vehicle: saline with Tween-80): 100 % of control | T/C (dose: 100.0 mg/kg/injection, schedule: Q01DX005 (ip), vehicle: saline with Tween-80): 100 % of control

c1ccc(CN2COc3c(ccc4ccccc34)C2)cc1
T/C (dose: 100.0 mg/kg/injection, schedule: Q04DX003 (ip), vehicle: Klucel (hydroxypropylcellulose) (HPC)): 97 % of control | T/C (dose: 200.0 mg/kg/injection, schedule: Q04DX003 (ip), vehicle: Klucel (hydroxypropylcellulose) (HPC)): 102 % of control | T/C (dose: 400.0 mg/kg/injection, schedule: Q04DX003 (ip), vehicle: Klucel (hydroxypropylcellulose) (HPC)): 96 % of control

Cc1ccc(S(=O)(=O)OCCN(CCOS(=O)(=O)c2ccc(C)cc2)c2ccc(F)cc2)cc1
T/C (dose: 0.63 mg/kg/injection, schedule: Q01DX009 (ip), vehicle: other): 104 % of control | T/C (dose: 1.25 mg/kg/injection, schedule: Q01DX009 (ip), vehicle: other): 118 % of control | T/C (dose: 5.0 mg/kg/injection, schedule: Q01DX009 (ip), vehicle: other): 150 % of control

CC/C(=N/NS(=O)(=O)c1ccc(C)cc1)c1ccc(Cl)cc1
T/C (dose: 50.0 mg/kg/injection, schedule: Q01DX009 (ip), vehicle: saline): 97 % of control | T/C (dose: 100.0 mg/kg/injection, schedule: Q01DX009 (ip), vehicle: saline): 92 % of control | T/C (dose: 200.0 mg/kg/injection, schedule: Q01DX009 (ip), vehicle: saline): 99 % of control

COc1ccc(C2OC3=Nc4cc(C)c(C)cc4NC3C2=O)cc1OC (stereo not given)
T/C (dose: 60.0 mg/kg/injection, schedule: Q01DX005 (ip), vehicle: saline with Tween-80): 101 % of control | T/C (dose: 120.0 mg/kg/injection, schedule: Q01DX005 (ip), vehicle: saline with Tween-80): 101 % of control | T/C (dose: 240.0 mg/kg/injection, schedule: Q01DX005 (ip), vehicle: saline with Tween-80): 99 % of control

Nc1ncnc(N)c1NC(=O)c1ccccc1
T/C (dose: 60.0 mg/kg/injection, schedule: Q01DX005 (ip), vehicle: suspension in saline): 98 % of control | T/C (dose: 120.0 mg/kg/injection, schedule: Q01DX005 (ip), vehicle: suspension in saline): 106 % of control

CCOC(=O)CC1CC2c3cc(OC)c(OC)cc3CCN2CC1CC (stereo not given)
T/C (dose: 12.5 mg/kg/injection, schedule: Q01DX009 (ip), vehicle: Klucel (hydroxypropylcellulose) (HPC)): 108 % of control | T/C (dose: 25.0 mg/kg/injection, schedule: Q01DX009 (ip), vehicle: Klucel (hydroxypropylcellulose) (HPC)): 114 % of control | T/C [1]: 100 % of control and 114 % of control

O=C(COc1nccc2nc(-c3ccccc3)cn12)c1ccccc1
T/C (dose: 1.56 mg/kg/injection, schedule: Q01DX009 (ip), vehicle: Klucel (hydroxypropylcellulose) (HPC)): 96 % of control | T/C (dose: 3.12 mg/kg/injection, schedule: Q01DX009 (ip), vehicle: Klucel (hydroxypropylcellulose) (HPC)): 89 % of control | T/C (dose: 6.25 mg/kg/injection, schedule: Q01DX009 (ip), vehicle: Klucel (hydroxypropylcellulose) (HPC)): 89 % of control and 92 % of control | T/C (dose: 12.5 mg/kg/injection, schedule: Q01DX001 (ip), vehicle: Klucel (hydroxypropylcellulose) (HPC)): 95 % of control | T/C (dose: 25.0 mg/kg/injection, schedule: Q01DX001 (ip), vehicle: Klucel (hydroxypropylcellulose) (HPC)): 95 % of control | T/C (dose: 50.0 mg/kg/injection, schedule: Q01DX001 (ip), vehicle: Klucel (hydroxypropylcellulose) (HPC)): 96 % of control

Cc1cc(/C=C2/OC(=O)c3ccccc32)cc(C)c1O
T/C (dose: 100.0 mg/kg/injection, schedule: Q04DX002 (ip), vehicle: saline): 94 % of control | T/C (dose: 200.0 mg/kg/injection, schedule: Q04DX002 (ip), vehicle: saline): 97 % of control | T/C (dose: 400.0 mg/kg/injection, schedule: Q04DX002 (ip), vehicle: saline): 97 % of control

O=S(=O)(F)/C=C/c1ccccc1
T/C (dose: 50.0 mg/kg/injection, schedule: Q01DX009 (ip), vehicle: saline with Tween-80): 109 % of control | T/C (dose: 100.0 mg/kg/injection, schedule: Q01DX009 (ip), vehicle: saline with Tween-80): 109 % of control
